Test results published in ChEMBL document CHEMBL1151105, “Antitumor principles in mosses: the first isolation and identification of maytansinoids, including a novel 15-methoxyansamitocin P-3” (J Nat Prod, 1988).
The source made the active and inactive calls. The calls are words filed in the database; no cut-off is given here.

System: P388
Assay: Cytotoxicity against mouse P388 cells after 48 hrs
Type: functional, cell-based

| Structure (SMILES) | Activity |
| --- | --- |
| COc1cc2cc(c1Cl)N(C)C(=O)C[C@H](OC(=O)C(C)N(C)C(=O)C(C)C)[C@]1(C)O[C@H]1[C@H](C)[C@@H]1C[C@@](O)(NC(=O)O1)[C@H](OC)/C=C/C=C(\C)C2OC (some centres undefined) | Active |
| COc1cc2cc(c1Cl)N(C)C(=O)C[C@H](OC(=O)C(C)C)[C@]1(C)O[C@H]1[C@H](C)[C@@H]1C[C@@](O)(NC(=O)O1)[C@H](OC)/C=C/C=C(\C)C2 | Active |
| COc1cc2cc(c1Cl)N(C)C(=O)C[C@H](OC(=O)C(C)N(C)C(=O)C(C)C)[C@]1(C)O[C@H]1[C@H](C)[C@@H]1C[C@@](O)(NC(=O)O1)[C@H](OC)/C=C/C=C(\C)C2 (some centres undefined) | Active |
| COc1cc2cc(c1Cl)N(C)C(=O)C[C@H](OC(=O)C(C)C)[C@]1(C)O[C@H]1[C@H](C)[C@@H]1C[C@@](O)(NC(=O)O1)[C@H](OC)/C=C/C=C(\C)C2OC (some centres undefined) | Active |
